In US20100029654A1, “CARDIOVASCULAR COMPOSITIONS AND USE OF THE SAME FOR THE TREATMENT OF ALZHEIMER'S DISEASE” (MOUNT SINAI SCHOOL OF MEDICINE, priority 2006, published 2010):
Counter-ions that a name gives are not always drawn. Like-named read-outs stand apart in the source and are kept apart here.

Assays:
[1] = test system: primary cortico-hippocampal neuron cultures; assay: lactate dehydrogenase (LDH) activity assay in parallel neuron cultures
Procedure: For in vitro treatments drugs available from “The Spectrum Collection” in stocks of 10 mM in DMSO were applied directly to cultures to the desired concentrations (final 1% DMSO); control primary neuron cultures from Tg2576 embryos were treated with vehicle resulting in a final 1% DMSO.
Cell viability was assessed using a commercial available LDH assay kit according to the manufacture's instruction (Promega).

Aβ1-42 = Aβ1-42 content in conditioned medium of primary cortico-hippocampal neuron cultures from Tg2576 mice (ELISA; primary and secondary dose-response screening); assay type: cell-based, mouse; conditions: for activity at 100 µM: Mus musculus, Neuron, 24 h, read-out: Ab1-42 (% of ctl); for activity at 100 µM / Ab1-42 (% of ctl): drug 100 μM; for reducing Aβ1-42: <85% of ctl
How it was run: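 Primary cortico-hippocampal neurons from embryonic Tg2576 mouse brain were seeded on poly-D-lysine-coated 96-well plates at 1.0×10^5 cells per well in serum-free Neurobasal medium with 2% B27, 0.5 mM L-glutamine and 1% penicillin-streptomycin. For primary screening, duplicate wells received 100 μM drug (1% DMSO final). Vehicle-treated cultures served as controls, and Aβ1-42 in conditioned medium was measured by commercial ELISA.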

Aβ1-40 = Aβ1-40 content in conditioned medium of primary cortico-hippocampal neuron cultures from Tg2576 mice (ELISA; primary and secondary dose-response screening); assay type: cell-based, mouse; conditions: for activity at 100 µM: Mus musculus, Neuron, 24 h, read-out: Ab1-40 (% of ctl); for activity at 100 µM / Ab1-40 (% of ctl): drug 100 μM; for reduced Aβ1-40: <85% of ctl
How it was run: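 Primary cortico-hippocampal neurons from embryonic Tg2576 mice were plated at 1.0×10^5 cells per well on poly-D-lysine-coated 96-well plates in Neurobasal with 2% B27, 0.5 mM L-glutamine and 1% penicillin-streptomycin. Cultures received drug in 1% DMSO, and Aβ1-40 in the conditioned medium was measured by BioSource ELISA 24 hours after treatment, relative to vehicle controls.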

[2] = test system: primary cortico-hippocampal neuron cultures; assay: MTT in primary screening
[3] = Primary Screening, table sorted by Aβ1-40
[4] = primary screening, table sorted by Aβ1-42
[5] = primary screening, Tg2576 neuron cultures, table sorted by Aβ1-42

SMILES | LDH (% of ctl) [1, 3] | LDH (% of ctl) [1, 4] | MTT (% of ctl) [2, 3] | MTT (% of ctl) [2, 4] | activity at 100 µM (Aβ1-42; [3]) [%] | activity at 100 µM (Aβ1-42; [5]) [%] | activity at 100 µM (Aβ1-40; [3]) [%] | activity at 100 µM (Aβ1-40; [5]) [%] | reduced Aβ1-40 (Aβ1-40; primary screening) | Ab1-42 (% of ctl) (Aβ1-42; [3]) | reducing Aβ1-42 (Aβ1-42; primary screening) | Ab1-42 (% of ctl) (Aβ1-42; [5]) | Ab1-40 (% of ctl) (Aβ1-40; [3]) | Ab1-40 (% of ctl) (Aβ1-40; [5])
O=C(O)c1cccnc1 [Niacin] | 134.5 % of ctl | 134.5 % of ctl | 61.0 % of ctl | 61.0 % of ctl | 95 | 95 | 101 | 101 |  |  |  |  |  | 
CO[C@]12C[C@@H](COC(=O)c3cncc(Br)c3)CN(C)[C@@H]1Cc1cn(C)c3cccc2c13 [Nicergoline] | 106.2 % of ctl | 106.2 % of ctl | 99.8 % of ctl | 99.8 % of ctl | 98.5 | 98.5 | 76.1 | 76.1 | reduced Aβ1-40 |  |  |  |  | 
O=C(O)C(O)C(O)C(=O)O.OCc1cccnc1 (stereo not drawn) [Nicotinyl Tartrate] | 122.6 % of ctl | 122.6 % of ctl | 92.7 % of ctl | 92.7 % of ctl |  |  |  |  | reduced Aβ1-40 | 73.8 % of ctl | useful in reducing Aβ1-42 | 73.8 % of ctl | 80.0 % of ctl | 80.0 % of ctl
CC(CCc1ccccc1)NC(C)C(O)c1ccc(O)cc1 (stereo not drawn) [Nylidrin Hydrochloride] | 115.6 % of ctl | 115.6 % of ctl | 79.7 % of ctl | 79.7 % of ctl | 90.4 | 90.4 | 70.5 | 70.5 | reduced Aβ1-40 |  |  |  |  | 
CCCc1nc(C(C)(C)O)c(C(=O)OCc2oc(=O)oc2C)n1Cc1ccc(-c2ccccc2-c2nnn[nH]2)cc1 [Olmesartan Medoxomil] | 90.7 % of ctl | 90.7 % of ctl | 90.7 % of ctl | 90.7 % of ctl | 70.7 | 70.7 | 83.9 | 83.9 | reduced Aβ1-40 |  | useful in reducing Aβ1-42 |  |  | 
C#CCN(C)Cc1ccccc1 [Pargyline Hydrochloride] | 116.9 % of ctl | 116.9 % of ctl | 86.4 % of ctl | 86.4 % of ctl | 106 | 106 | 78.6 | 78.6 | reduced Aβ1-40 |  |  |  |  | 
CC(=O)CCCCn1c(=O)c2c(ncn2C)n(C)c1=O [Pentoxifylline] | 132.4 % of ctl | 132.4 % of ctl | 91.1 % of ctl | 91.1 % of ctl | 109 | 109 | 97.1 | 97.1 |  |  |  |  |  | 
O=C1c2ccccc2C(=O)C1c1ccccc1 [Phenindione] | 107.9 % of ctl | 107.9 % of ctl | 108.8 % of ctl | 108.8 % of ctl | 105 | 105 | 104 | 104 |  |  |  |  |  | 
CC(C)(Sc1cc(C(C)(C)C)c(O)c(C(C)(C)C)c1)Sc1cc(C(C)(C)C)c(O)c(C(C)(C)C)c1 [Probucol] | 109.3 % of ctl | 109.3 % of ctl | 94.8 % of ctl | 94.8 % of ctl | 136 | 136 | 76.8 | 76.8 | reduced Aβ1-40 |  |  |  |  | 

Now from value to compound, other results behind:

LDH (% of ctl) [1, 3] | LDH (% of ctl) [1, 4] | MTT (% of ctl) [2, 3] | MTT (% of ctl) [2, 4] | SMILES | activity at 100 µM (Aβ1-42; [3]) [%] | activity at 100 µM (Aβ1-42; [5]) [%] | activity at 100 µM (Aβ1-40; [3]) [%] | activity at 100 µM (Aβ1-40; [5]) [%] | reduced Aβ1-40 (Aβ1-40; primary screening) | Ab1-42 (% of ctl) (Aβ1-42; [3]) | reducing Aβ1-42 (Aβ1-42; primary screening) | Ab1-42 (% of ctl) (Aβ1-42; [5]) | Ab1-40 (% of ctl) (Aβ1-40; [3]) | Ab1-40 (% of ctl) (Aβ1-40; [5])
106.5 % of ctl | 106.5 % of ctl | 102.8 % of ctl | 102.8 % of ctl | CC(C)(C)NCC(O)COc1cccc2c1CC(O)C(O)C2 (stereo not drawn) [Nadolol] | 113 | 113 | 94.2 | 94.2 |  |  |  |  |  | 
96.6 % of ctl | 96.6 % of ctl | 103.2 % of ctl | 103.2 % of ctl | CCN(CC)CCOC(=O)C(Cc1cccc2ccccc12)CC1CCCO1 (stereo not drawn) [Nafronyl Oxalate] | 145 | 145 | 134 | 134 |  |  |  |  |  | 
97.0 % of ctl | 97.0 % of ctl | 97.3 % of ctl | 97.3 % of ctl | Cc1cc(C(C)(C)C)c(O)c(C)c1CC1=NCCN1 [Oxymetazoline Hydrochloride] | 44.9 | 44.9 | 78 | 78 | reduced Aβ1-40 |  | useful in reducing Aβ1-42 |  |  | 
108.4 % of ctl | 108.4 % of ctl | 91.3 % of ctl | 91.3 % of ctl | CN1C(C)(C)CCCC1(C)C [Pempidine Tartrate] | 78.6 | 78.6 | 80.9 | 80.9 | reduced Aβ1-40 |  | useful in reducing Aβ1-42 |  |  | 
118.0 % of ctl | 118.0 % of ctl | 103.8 % of ctl | 103.8 % of ctl | C[N+]1(CCCCC[N+]2(C)CCCC2)CCCC1 [Pentolinium Tartrate] | 134 | 134 | 121 | 121 |  |  |  |  |  | 
1065.9 % of ctl | 1065.9 % of ctl | 7.2 % of ctl | 7.2 % of ctl | C1CCC(C(CC2CCCCN2)C2CCCCC2)CC1 (stereo not drawn) [Perhexiline Maleate] | 26.2 | 26.2 | 4.8 | 4.8 | reduced Aβ1-40 |  | useful in reducing Aβ1-42 |  |  | 
171.7 % of ctl | 171.7 % of ctl | 98.9 % of ctl | 98.9 % of ctl | CC(C)NCC(O)COc1cccc2[nH]ccc12 (stereo not drawn) [Pindolol] | 46.1 | 46.1 | 99 | 99 |  |  | useful in reducing Aβ1-42 |  |  | 
108.9 % of ctl | 108.9 % of ctl | 101.3 % of ctl | 101.3 % of ctl | CC(=O)Nc1ccc(OCC(O)CNC(C)C)cc1 (stereo not drawn) [Practolol] | 99.9 | 99.9 | 99.7 | 99.7 |  |  |  |  |  | 
111.1 % of ctl | 111.1 % of ctl | 96.8 % of ctl | 96.8 % of ctl | CCN(CC)CCNC(=O)c1ccc(N)cc1 [Procainamide Hydrochloride] | 109 | 109 | 118 | 118 |  |  |  |  |  | 
